Earlier results in US12219980B2, “Nutritionally enhanced fraction from rice bran and method of lowering insulin resistance using same” (QJV, LLC, priority 2010, dated 2025).

Key:
[1] = animal studies, compared with controls
[2] = in vivo
HMG-CoA = target: T1, HMG-CoA (Homo sapiens, UniProt P04035); settings: micromolar amounts
T1 sequence (P04035 1-888): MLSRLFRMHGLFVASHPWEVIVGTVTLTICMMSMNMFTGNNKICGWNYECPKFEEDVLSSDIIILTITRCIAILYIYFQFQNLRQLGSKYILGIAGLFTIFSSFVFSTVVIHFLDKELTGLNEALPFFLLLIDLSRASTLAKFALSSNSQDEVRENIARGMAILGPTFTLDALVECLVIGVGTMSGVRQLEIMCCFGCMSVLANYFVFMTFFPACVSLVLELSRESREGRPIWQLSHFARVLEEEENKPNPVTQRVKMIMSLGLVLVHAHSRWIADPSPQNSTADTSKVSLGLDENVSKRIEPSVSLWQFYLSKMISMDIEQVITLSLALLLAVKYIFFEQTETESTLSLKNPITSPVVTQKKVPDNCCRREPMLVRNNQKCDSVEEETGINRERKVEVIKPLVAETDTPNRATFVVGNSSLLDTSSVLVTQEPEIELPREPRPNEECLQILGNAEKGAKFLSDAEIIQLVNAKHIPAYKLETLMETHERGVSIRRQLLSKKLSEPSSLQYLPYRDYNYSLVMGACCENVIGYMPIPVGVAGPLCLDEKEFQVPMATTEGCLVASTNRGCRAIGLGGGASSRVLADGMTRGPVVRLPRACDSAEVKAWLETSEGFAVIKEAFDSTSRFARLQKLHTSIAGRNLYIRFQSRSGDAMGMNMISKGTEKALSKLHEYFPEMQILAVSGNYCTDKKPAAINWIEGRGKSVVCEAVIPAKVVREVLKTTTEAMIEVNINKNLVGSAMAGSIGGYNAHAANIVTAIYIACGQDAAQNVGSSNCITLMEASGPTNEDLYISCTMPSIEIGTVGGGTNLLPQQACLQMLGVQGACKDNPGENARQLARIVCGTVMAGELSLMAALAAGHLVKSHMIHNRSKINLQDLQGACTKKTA

[3] = in vivo; remark: listed apart in the source

For COc1cc(/C=C/C(=O)O)ccc1O [ferulic acid], the “activities of hepatic glucose-6-phosphate dehydrogenase, catalase and peroxidase” value [1] is listed as “diminishing” and the “levels of glycogen in the liver and skeletal muscle” value [1] is listed as “significantly decreased”.
In the case of gamma-oryzanol, the “bile acid secretion and fecal excretion of cholesterol” value [2] is listed as “affect bile acid secretion and fecal excretion of cholesterol”.
For tocotrienol, the “activity of HMG-CoA” value (HMG-CoA) is listed as “suppress the activity of HMG-CoA” and the “total cholesterol and LDL cholesterol in blood plasma” value [3] is listed as “lower”.
